{"source": "patent US20090111177A1", "about": "“Maintenance of Embryonic Stem Cells by the GSK-3 Inhibitor 6-Bromoindirubin-3'-Oxime” (THE ROCKEFELLER UNIVERSITY, priority 2003, published 2009)", "key": {"HESCs (H1, BGN1)": {"system": "HESCs (H1, BGN1)", "assay": "Feeder-free culture of HESCs, undifferentiated morphology", "type": "cell-based, human", "details": "for morphology / undifferentiated phenotype of HESCs: feeder-free, non-conditioned medium, 6-bromoindirubin-3′-oxime and Me analogue 2 μM, LiCl 5 mM, Wnt3a protein", "protocol": "(§1) Cell culture. Human embryonic stem cells (HESCs) lines were provided by WiCell Research Institute (H1 line)^5 and BresaGen Inc. (BGN1 and BGN2 lines). H1 cells were cultivated on irradiated mouse embryonic fibroblasts (MEFs) in medium consisting of 80% DMEM/F12 medium, 20% knockout serum replacement (KSR), 1 mM L-glutamine, 1% non-essential amino acids, 0.1 mM β-mercaptoethanol, and 4 ng/ml basic FGF (all from Invitrogen). […] Subsequently, HESCs were cultured on Matrigel (BD biosciences) in medium conditioned by MEFs, and passaged several times until colonies became free from contaminating MEFs as described before^9."}, "CJ-GFP cells (MESCs)": {"system": "CJ-GFP cells (MESCs)", "assay": "Low-density culture of CJ-GFP MESCs without LIF, morphology", "type": "cell-based, mouse", "details": "1 μM; 7 d plus 5 d at low density; data not shown for Me analogue", "protocol": "Teratoma formation. We grew CJ-GFP cells at a low density (500 cells/cm^2) on gelatin-coated 10 cm dishes in medium containing 6-bromoindirubin-3′-oxime 1 μM for 7 d, then passaged cells at the same density and cultured under the same condition another 5 d to further enforce differentiation of cells."}, "[1]": {"system": "canonical Wnt pathway (TCF binding sites, TopFlash)", "assay": "TopFlash/FopFlash luciferase reporter assay in CJ7 cells (MESCs)", "type": "cell-based, mouse", "details": "CJ7 cells (MESCs); FIG. 2b", "protocol": "(§2) Luciferase assay. […] Test compounds were added 24 hrs after transfection. Following incubation for 24 hrs, cells were harvested, and analyzed by the dual luciferase reporter assay system (Promega) using Lumat (Berthold Technologies). Each value was standardized by Renilla luciferase activity.\nThe canonical Wnt signal occurs through binding of the Wnt protein to the Frizzled receptor at cell surface. It is followed by inactivation of GSK-3, leading to accumulation of β-catenin in the nucleus that activates the transcription of Wnt target genes in collaboration with TCFs^18,19. Alternatively, Wnt signaling can be activated by direct, intracellular inhibition of the GSK-3 function using specific inhibitors^20. […] First we examined whether mouse and human ESCs were capable of transducing Wnt signaling under the influence of 6-bromoindirubin-3′-oxime. […] We then evaluated expression of β-catenin at the cellular level as a read-out of the activation status of the canonical Wnt pathway in HESCs."}, "Oct-3/4": {"system": "Oct-3/4", "assay": "Oct-3/4 immunocytochemistry in HESCs", "type": "cell-based, human", "details": "HESCs in non-conditioned medium; FIG. 4c", "protocol": "as §1\nImmunofluorescence. Cells were fixed in 4% paraformaldehyde for 20 min at room temperature and incubated overnight at 4° C. with primary antibodies against Oct-4 (BD Biosciences), β-catenin (BD Biosciences), Tuj-1 (BAbCO), cytokeratin (Sigma), glial fibrillary acidic protein, GFAP, (Dako), smooth muscle actin (Research Diagnostics Inc), α-fetoprotein (α-FP, Cell Sciences) and Tromal (Developmental Studies Hybridoma Bank). For nuclear localization analysis, the fixed samples were subjected to fluorescent digital confocal imaging analysis using a Zeiss LSM 510 confocal microscope (Carl Zeiss). For mouse embryonic tissue sections, mid gestation embryos were fixed in 4% paraformaldehyde followed by paraffin embedding and tissue sectioning. After deparaffinization, tissue sections were incubated with a GFP-specific antibody (Molecular Probe) at 4° C. overnight. Antigens were localized by using goat anti-mouse IgG conjugated to Cy3 or goat anti-rabbit IgG conjugated to Cy2 (Zymed laboratories). For the quantitative image analysis, fluorescent images from triplicate samples were taken by the Discovery1 system (Universal Imaging Corporation). The fluorescent objects were selected by the threshold function and evaluated in five regions of each well by quantification of pixel intensities and the object size by using MetaMorph software (Universal Imaging Corporation)."}, "GSK-3": {"system": "GSK-3", "details": "from reference 10; cited from earlier work"}, "Rex-1 promoter [2]": {"system": "Rex-1 promoter", "assay": "Rex-1 luciferase reporter assay in CJ7 cells", "type": "cell-based, mouse", "details": "CJ7 cells; compared to LIF-treated cells", "source_text": "Nat Biotechnol 20, 87-90), a small fragment containing the TCF binding sites and the cFos promoter in pTopFlash was excised by XbaI digestion, and cloned into pcDNA3-Venus in which Venus was introduced into the multiple cloning site between BamHI and EcoRI of the pcDNA3 vector (Invitrogen) whose CMV promoter was eliminated by BglII and HindIII digestion. […] To generate the Rex-1-Venus reporter construct, the Rex-1 promoter region was cloned into pcDNA3-Venus.\nas §2"}, "Rex-1 promoter [3]": {"system": "Rex-1 promoter", "assay": "Rex-1 YFP reporter line CJRex-Y (imaging / FACS)", "type": "cell-based, mouse", "details": "CJRex-Y cells, 5 d", "protocol": "Generation of stable mouse ES lines. CJ7 ES cells were transfected with pRex-1-Venus, pTY or pCAG-HygEGFP by using Lipofectamine 2000 (Invitrogen) followed by G418 (Invitrogen) selection at 200 μg/ml (for CJRex-Y or CJ-TY) or hygromycine (Invitrogen) selection at 600 μg/ml (for CJ-GFP). Two weeks after the drug selection, a number of single colonies were picked up, expanded and used for the further analyses.\nFACS analysis of MESCs. We cultured CJRex-Y cells at a low density (500 cells/cm^2) on gelatin-coated 10 cm dishes in mouse ES cell medium alone, medium containing LIF, medium conditioned from wild type L cells or medium conditioned from Wnt3a-L cells (ATCC) for 5 days. The Wnt3a conditioned medium was prepared according to the provider's protocol. Cells were harvested, resuspended in mouse ES medium and subjected to FACS analysis using FACSVantage SE system (BD Biosciences)."}, "β-catenin": {"system": "β-catenin", "assay": "β-catenin immunofluorescence confocal analysis in HESCs", "type": "cell-based, human", "details": "compared to non-conditioned medium treated cells, FIG. 2c", "protocol": "as §1\nImmunofluorescence. […] For the quantitative image analysis, fluorescent images from triplicate samples were taken by the Discovery1 system (Universal Imaging Corporation). The fluorescent objects were selected by the threshold function and evaluated in five regions of each well by quantification of pixel intensities and the object size by using MetaMorph software (Universal Imaging Corporation)."}, "cyclin D1": {"system": "cyclin D1", "assay": "cyclin D1 immunofluorescence in HESCs", "type": "cell-based, human", "details": "HESCs (BGN2); non-CM; 6-bromoindirubin-3′-oxime 1.0 μM or Wnt3a protein 100 ng; FIG. 7", "protocol": "Immunofluorescence. HESCs were grown in conditioned medium (CM), non-CM, non-CM containing Me 6-bromoindirubin-3′-oxime (1.0 μM), non-CM containing 6-bromoindirubin-3′-oxime (1.0 μM) or non-CM containing recombinant mouse Wnt3a protein (100 ng/ml, R&D systems) for 5 d. Cells were fixed in 4% paraformaldehyde for 20 min at room temperature and incubated overnight at 4° C. with primary antibodies against cyclin D1 (Santa Cruz Technology, Santa Cruz, Calif.). Antigens were localized by using goat anti-rabbit IgG conjugated to Cy3 (Zymed laboratories)."}}}
{"compound": "[Cl-].[Li+]", "note": "[LiCl, reference compound]", "values": [{"measurement": "toxicity to HESCs", "setting": "HESCs (H1, BGN1); 10 mM, FIG. 4c", "value": "substantial toxicity"}, {"measurement": "morphology / undifferentiated phenotype of HESCs", "setting": "HESCs (H1, BGN1); 7 d", "value": "failed to maintain the undifferentiated phenotype"}]}
{"compound": "CN1C(=O)C(=C2Nc3ccccc3C2=NO)c2ccc(Br)cc21", "note": "[Me 6-bromoindirubin-3′-oxime, 1-methyl-6-bromoindirubin-3′-oxime, reference compound]", "values": [{"measurement": "colony morphology of MESCs without LIF", "setting": "CJ-GFP cells (MESCs)", "value": "large flat differentiated morphology"}, {"measurement": "TopFlash reporter activity", "setting": "[1]", "value": "did not show any change in activity"}, {"measurement": "Oct-3/4 expression at the cellular level", "setting": "Oct-3/4", "value": "remarkable reduction of Oct-3/4 expression"}, {"measurement": "GSK-3 / kinase inhibition", "setting": "GSK-3", "value": "kinase-inactive"}, {"measurement": "morphology / undifferentiated phenotype of HESCs", "setting": "HESCs (H1, BGN1); 7 d", "value": "fully flattened morphology"}, {"measurement": "Rex-1 promoter activity", "setting": "Rex-1 promoter [2]", "value": "slightly reduced"}, {"measurement": "colony morphology / cell shape", "setting": "Rex-1 promoter [3]; FIG. 3b", "value": "flattened cell shape"}, {"measurement": "Rex-1 transcriptional (YFP reporter) activity", "setting": "Rex-1 promoter [3]; absence of LIF", "value": "substantially lower activity"}, {"measurement": "nuclear accumulation of β-catenin", "setting": "β-catenin", "value": "did not show obvious difference"}]}
{"compound": "Human-derived LIF: Human-derived LIF", "values": [{"measurement": "prevention of HESC differentiation in non-conditioned medium", "setting": "HESCs (H1, BGN1); LIF up to 2,000 to 3,000 U/ml, 7 d", "value": "failed to prevent the differentiation"}]}
{"compound": "Wnt3a", "values": [{"measurement": "Oct-3/4 expression at the cellular level", "setting": "Oct-3/4", "value": "high level of Oct-3/4 expression"}, {"measurement": "cyclin D1 expression", "setting": "cyclin D1", "value": "up-regulated cyclin D1 expression"}, {"measurement": "morphology / undifferentiated phenotype of HESCs", "setting": "HESCs (H1, BGN1); 7 d", "value": "maintain compact undifferentiated colonies"}]}
